# From US10858347B2, “Multicyclic compounds and uses thereof” (Karyopharm Therapeutics Inc., priority 2015, dated 2020)
# Experiments:
# MS751 cells = experiment: MTT cell proliferation assay, MS751 cells; type: cell-based; details: MS751 cells (human cervix squamous cell carcinoma, lymph node metastasis); approximately 64-72 hours incubation
# Procedure: (§1) The MTT cell proliferation assay was used to study the cytotoxic properties of the compounds. The assay was performed according to the method described by Roche Molecular Biochemicals, with minor modifications. The assay is based on the cleavage of the tetrazolium salt, MTT, in the presence of an electron-coupling reagent. The water-insoluble formazan salt produced must be solubilized in an additional step. Cells grown in a 96-well tissue culture plate were incubated with the MTT solution for approximately 4 hours. After this incubation period, a water-insoluble formazan dye formed. After solubilization, the formazan dye was quantitated using a scanning multi-well spectrophotometer (ELISA reader). […] The cells were seeded at 5,000-10,000 cells in each well of 96-well plate in 100 μL of fresh culture medium and were allowed to attach overnight. The stock solutions of the compounds were diluted in 100 μL cell culture medium to obtain eight concentrations of each test compound, ranging from 1 nM to 30 μM. […] All optical densities were measured at 490 nm using a Vmax Kinetic Microplate Reader (Molecular Devices). In most cases, the assay was performed in duplicate and the results were presented as a mean percent inhibition to the negative control±SE. The following formula was used to calculate the percent of inhibition: Inhibition (%)=(1−(ODo/OD))×100.
# (§2) The compounds were tested against MS751, Z138 and 3T3 cells. The MS751 cell line is derived from a metastasis to lymph node of human cervix from a patient diagnosed with squameous cell carcinoma of the cervix. The Z138 cell line is a mature B-cell acute lymphoblastic leukemia cell line derived from a patient with chronic lumphocytic leukemia. 3T3 cells are standard fibroblast cells; they were originally isolated from Swiss mouse embryo tissue.
# Z138 cells = experiment: MTT cell proliferation assay, Z138 cells; type: cell-based, human; details: Homo sapiens, Z-138; Z138 cells (mature B-cell acute lymphoblastic leukemia cell line); approximately 64-72 hours incubation
# Procedure: as §1, §2
# 3T3 cells = experiment: MTT cell proliferation assay, 3T3 cells; type: cell-based; details: NIH3T3; 3T3 cells (standard fibroblast cells, Swiss mouse embryo); approximately 64-72 hours incubation
# Procedure: as §1, §2
SMILES,IC50 (MS751 cells) [µM],IC50 (Z138 cells) [µM],IC50 (3T3 cells) [µM]
"Nc1ccc(CNC(=O)NCc2cc3cc(-c4ccc(C(=O)N5CCC(F)(F)CC5)cc4)cc(-c4ccc(F)cc4)c3o2)cn1 [Compound 100, 1-((6-aminopyridin-3-yl)methyl)-3-((5-(4-(4,4-difluoropiperidine-1-carbonyl)phenyl)-7-(4-fluorophenyl)benzofuran-2-yl)methyl)urea]",< 0.1,< 0.1,0.1 to 5
"Nc1ccc(NC(=O)NCc2cc3cc(-c4ccc(C(=O)N5CCC(F)(F)CC5)cc4)cc(-c4ccc(F)cc4)c3o2)cn1 [Compound 101, 1-(6-aminopyridin-3-yl)-3-((5-(4-(4,4-difluoropiperidine-1-carbonyl)phenyl)-7-(4-fluorophenyl)benzofuran-2-yl)methyl)urea]",0.1 to 5,0.1 to 5,> 10
"O=C(NCc1cc2cc(-c3ccc(C(=O)N4CCC(F)(F)CC4)cc3)cc(-c3ccc(F)cc3)c2o1)N1Cc2ccncc2C1 [Compound 102, N-((5-(4-(4,4-difluoropiperidine-1-carbonyl)phenyl)-7-(4-fluorophenyl)benzofuran-2-yl)methyl)-1H-pyrrolo[3,4-c]pyridine-2(3H)-carboxamide]",< 0.1,< 0.1,0.1 to 5
"Nc1ccc(C2CN(C(=O)NCc3cc4cc(-c5ccc(C(=O)N6CCC(F)(F)CC6)cc5)cc(-c5ccc(F)cc5)c4o3)C2)cn1 [Compound 103, 3-(6-aminopyridin-3-yl)-N-((5-(4-(4,4-difluoropiperidine-1-carbonyl)phenyl)-7-(4-fluorophenyl)benzofuran-2-yl)methyl)azetidine-1-carboxamide]",0.1 to 5,< 0.1,0.1 to 5
"O=C(NCCc1cc2cc(-c3ccc(C(=O)N4CCC(F)(F)CC4)cc3)cc(-c3ccc(F)cc3)c2o1)N1Cc2ccncc2C1 [Compound 107, N-(2-(5-(4-(4,4-difluoropiperidine-1-carbonyl)phenyl)-7-(4-fluorophenyl)benzofuran-2-yl)ethyl)-1H-pyrrolo[3,4-c]pyridine-2(3H)-carboxamide]",< 0.1,< 0.1,0.1 to 5
"O=C(NCc1cc2cc(-c3ccc(C(=O)N4CCC(F)(F)CC4)cc3)cc(-c3ccc(F)cc3F)c2o1)N1Cc2ccncc2C1 [Compound 108, N-((7-(2,4-difluorophenyl)-5-(4-(4,4-difluoropiperidine-1-carbonyl)phenyl)benzofuran-2-yl)methyl)-1H-pyrrolo[3,4-c]pyridine-2(3H)-carboxamide]",< 0.1,< 0.1,> 10
"Nc1cc2c(cn1)CN(C(=O)NCc1cc3cc(-c4ccc(C(=O)N5CCC(F)(F)CC5)cc4)cc(-c4ccc(F)cc4)c3o1)C2 [Compound 115, 6-amino-N-((5-(4-(4,4-difluoropiperidine-1-carbonyl)phenyl)-7-(4-fluorophenyl)benzofuran-2-yl)methyl)-1H-pyrrolo[3,4-c]pyridine-2(3H)-carboxamide]",–,< 0.1,0.1 to 5
"Nc1ccc(CNC(=O)NCc2cc3cc(-c4ccc(C(=O)N5CCC(F)(F)CC5)cn4)cc(-c4ccc(F)cc4)c3o2)cn1 [Compound 116, 1-((6-aminopyridin-3-yl)methyl)-3-((5-(5-(4,4-difluoropiperidine-1-carbonyl)pyridin-2-yl)-7-(4-fluorophenyl)benzofuran-2-yl)methyl)urea]",–,< 0.1,0.1 to 5
"Nc1ccc(CNC(=O)NCc2cc3cc(-c4ccc(C(=O)N5CC(F)(F)C5)cc4)cc(C(F)(F)F)c3o2)cn1 [Compound 117, 1-((6-aminopyridin-3-yl)methyl)-3-((5-(4-(3,3-difluoroazetidine-1-carbonyl)phenyl)-7-(trifluoromethyl)benzofuran-2-yl)methyl)urea]",–,5 to 10,> 10
"N#C/N=C(\NCc1cc2cc(-c3ccc(C(=O)N4CCC(F)(F)CC4)cc3)cc(-c3ccc(F)cc3)c2o1)Nc1ccc(N)nc1 [Compound 118, (E)-1-(6-aminopyridin-3-yl)-2-cyano-3-((5-(4-(4,4-difluoropiperidine-1-carbonyl)phenyl)-7-(4-fluorophenyl)benzofuran-2-yl)methyl)guanidine]",> 10,> 10,> 10
"N#C/N=C(/NCc1ccc(N)nc1)NCc1cc2cc(-c3ccc(C(=O)N4CCC(F)(F)CC4)cc3)cc(-c3ccc(F)cc3)c2o1 [Compound 119, (Z)-1-((6-aminopyridin-3-yl)methyl)-2-cyano-3-((5-(4-(4,4-difluoropiperidine-1-carbonyl)phenyl)-7-(4-fluorophenyl)benzofuran-2-yl)methyl)guanidine]",0.1 to 5,0.1 to 5,> 10
"O=C(NCc1ccc(-c2ccc(-c3ccc(C(=O)N4CCC(F)(F)CC4)cc3)cc2-c2ccc(F)cc2)o1)N1Cc2ccncc2C1 [Compound 120, N-((5-(4-(4,4-difluoropiperidine-1-carbonyl)-4″-fluoro-[1,1′:3′,1″-terphenyl]-4′-yl)furan-2-yl)methyl)-1,3-dihydro-2H-pyrrolo[3,4-c]pyridine-2-carboxamide]",–,< 0.1,> 10
"O=C(NCCOc1ccc(-c2ccc(C(=O)N3CCC(F)(F)CC3)cc2)cc1-c1ccc(F)cc1)N1Cc2ccncc2C1 [Compound 121, N-(2-((4-(4,4-difluoropiperidine-1-carbonyl)-4″-fluoro-[1,1′:3′,1″-terphenyl]-4′-yl)oxy)ethyl)-1,3-dihydro-2H-pyrrolo[3,4-c]pyridine-2-carboxamide]",< 0.1,< 0.1,> 10
"O=C(NCC1Cc2cc(-c3ccc(C(=O)N4CCC(F)(F)CC4)cc3)cc(-c3ccc(F)cc3)c2O1)N1Cc2ccncc2C1 (centres unmarked) [Compound 122, N-((5-(4-(4,4-difluoropiperidine-1-carbonyl)phenyl)-7-(4-fluorophenyl)-2,3-dihydrobenzofuran-2-yl)methyl)-1,3-dihydro-2H-pyrrolo [3,4-c]pyridine-2-carboxamide]",–,< 0.1,< 0.1
"Nc1ccc(CNC(=O)NCC2Cc3cc(-c4ccc(C(=O)N5CCC(F)(F)CC5)cc4)cc(-c4ccc(F)cc4)c3O2)cn1 (centres unmarked) [Compound 123, 1-((6-aminopyridin-3-yl)methyl)-3-((5-(4-(4,4-difluoropiperidine-1-carbonyl)phenyl)-7-(4-fluorophenyl)-2,3-dihydrobenzofuran-2-yl)methyl)urea]",–,< 0.1,0.1 to 5
"Nc1ccc(CNC(=O)NCc2ccc(-c3ccc(-c4ccc(C(=O)N5CCC(F)(F)CC5)cc4)cc3-c3ccc(F)cc3)o2)cn1 [Compound 125, 1-((6-aminopyridin-3-yl)methyl)-3-((5-(3-(4-fluorophenyl)-4′-(4,4-difluoropiperidine-1-carbonyl)biphenyl-4-yl)furan-2-yl)methyl)urea]",–,< 0.1,> 10
